Test results: patent publication US12421270B2, “Oligosaccharide, preparation method therefor, composition thereof and use thereof” (YANTAI DONGCHENG BIOCHEMICALS CO., LTD, priority 2018, dated 2025)

Legend:
Format in all cases: biochemical
[1] = tested on: platelet-poor plasma; experiment: TT assay (thrombin time), anticoagulant activity test; conditions: 37° C., fibrin formation time, last column of table
Procedure: (§1) Oligosaccharide compounds of the present application, J1 (a compound of formula J, in which Y=Na, q=1, R is azido, and ? is in β configuration), J2 (a compound of formula J, in which Y=Na, q=2, R is azido, and ? is in β configuration), J3 (a compound of formula J, in which Y=Na, q=3, R is azido, and ? is in β configuration), and J4 (a compound of formula J, in which Y=Na, q=4, R is azido, and ? is in β configuration) were assayed for anticoagulant activity, including activated partial thrombin time (APTT), prothrombin time (PT) and thrombin time (TT).
(§2) The whole experiment was carried out according to the instruction of the TT kit. Firstly, 20 ul of platelet-poor plasma and 5 ul of the solution to be tested (control or sample solution) were mixed into a test cup and incubated in preheating zone at 37° C. for 3 min. Then the test cup was moved to the test zone, and 50 ul of preheated TT reagent was added (preheating time is longer than 10 min, but not more than 30 min). At the same time, recording of fibrin formation time was immediately initiated, and when the experiment was completed, the fibrin formation time was read from the coagulation analyzer.
(§3) Results of the assays are as follows (data in the table represent the concentration required to double APTT/PT/TT): […]

[2] = tested on: platelet-poor plasma; experiment: PT assay (prothrombin time), anticoagulant activity test; conditions: 37° C., fibrin formation time
Procedure: as §1
as §2, with “PT” for “TT”
as §3

[3] = tested on: platelet-poor plasma; experiment: APTT assay (activated partial thrombin time), anticoagulant activity test; conditions: 37° C., fibrin formation time
Procedure: as §1
The whole experiment was carried out according to the instruction of the APTT kit. Firstly, 20 ul of platelet-poor plasma and 5 ul of the solution to be tested (control or sample solution) were mixed into a test cup and incubated in preheating zone at 37° C. for 3 min. Then 25 ul of APTT reagent was added to the mixed system, and then continued to incubate at 37° C. for 3 min. Next, the test cup was moved to the test zone, and 25 ul of calcium chloride solution preheated for 5 min was added. At the same time, recording of fibrin formation time was immediately initiated, and when the experiment was completed, the fibrin formation time was read from the coagulation analyzer.
as §3

## azido{(2,4-di-O-sulfo-α-L-fucosyl)-(1→3)-(β-D-glucopyranosyluronic acid)-(1→3)-(4,6-di-O-sulfo-2-deoxy-2-N-acetamino-β-D-galactopyranosyl)-(1→4)-[(2,4-di-O-sulfo-α-L-fucosyl)-(1→3)-(β-D-glucopyranosyluronic acid)-(1→3)-(4,6-di-O-sulfo-2-deoxy-2-N-acetamido-β-D-galactopyranosyl)]} decasodium salt [Compound J1]
[1]
  Concentration required to double TT: >128 µg/mL
[2]
  PT (concentration required to double PT): >128 µg/mL
[3]
  APTT (concentration required to double APTT): 120.39 µg/mL
